For one test, the system named is T1, SNAP-A1AR.
T1 construct: expressed in transfected cells; host or cells: HEK293T, transient transfection (FuGENE HD)
Description: Confocal A1AR internalisation and Rab5 immunolabelling. In kind it is cell-based, human. Conditions: 10 μM agonist 2 h; cells prelabeled with 30 nM 11. An excerpt:
A natural concern would be the potential for the covalently transferred fluorophore to prevent access of ligands to the orthosteric binding site of the labeled receptor. To address this question, we employed probe 11 to visualize the internalization pathway of the hA1AR by confocal microscopy. […] Cells were immunolabeled with the Anti-Rab5 monoclonal antibody and visualized by treatment with AF488-conjugated secondary antibody (middle frames, green channel). Right-hand frames show merged images of both magenta and green channels. […] The confocal images are representative of images acquired from three independent experiments. […] 37 °C 5% CO2. […] […] at 37 °C, 5% CO2. […] Cells were […] […] Cells were washed 3x 5 min with PBS.

Another test concerns the target T2, NL-hA1AR (Homo sapiens, UniProt P30542).
T2 construct: expressed in transfected cells
T2 sequence (P30542 1-326): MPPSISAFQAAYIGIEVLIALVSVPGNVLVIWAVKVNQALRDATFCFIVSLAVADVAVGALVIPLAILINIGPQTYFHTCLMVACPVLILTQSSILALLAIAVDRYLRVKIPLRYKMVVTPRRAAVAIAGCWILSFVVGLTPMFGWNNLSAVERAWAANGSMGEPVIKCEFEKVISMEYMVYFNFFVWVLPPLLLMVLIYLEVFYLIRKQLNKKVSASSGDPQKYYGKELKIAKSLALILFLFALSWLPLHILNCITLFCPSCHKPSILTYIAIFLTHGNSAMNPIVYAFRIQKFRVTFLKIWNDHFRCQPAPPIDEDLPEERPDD
Put plainly: NanoBRET dissociation kinetics, NL-hA1AR HEK293T cells. Format: binding. Conditions: NL-hA1AR HEK293T cells, CA200645 preincubated 2 h. The procedure: Figure 3 Molecular pharmacology and biochemical characterization of 11 and 12. NanoBRET ligand-binding data were measured in HEK293 cells stably expressing the human NL-A1AR (A–C) or rat NL-A1AR (D–F). […] Data were normalized to maximal BRET signals in the absence of unlabeled competing ligands (total binding, TB). (C, F) NanoBRET dissociation kinetics experiments with 11 (SulfoCy5) performed in human and rat NL-A1AR HEK293T cells, respectively. Cells were treated with 250 nM 11 (SulfoCy5, lilac open circles) for 5 h and CA200645 (black open triangles) for 2 h. […] TS-SNAP-A1AR was purified and separated on an SDS-PAGEgel gel, and direct Cy5 fluorescence was visualized using in-gel fluorescence. […]
The small reduction in the BRET signal observed toward the end of the reads could be mostly likely ascribed to substrate (furimazine) consumption. […] To confirm covalent labeling of A1AR by 11 and 12, HEK293G cells stably expressing a Twin-Strep-SNAP-A1AR(TS-SNAP-A1R) construct were treated with 11 or 12 prior to purification, separation by sodium dodecyl sulfate-polyacrylamide gel electrophoresis (SDS-PAGE) and visualization of labeled samples by in-gel fluorescence (Figure 3G). […]
37 °C for kinetic binding experiments. Emissions were read at 420 nm (80 nm bandpass; […]

As for `OC[C@H]1O[C@@H](n2cnc3c(NC4CCCC4)nc(Cl)nc32)[C@H](O)[C@@H]1O` [CCPA, 2-chloro-N^6-cyclopentyladenosine], the “localization of SulfoCy5-labeled SNAP-A1AR at the plasma membrane after agonist” value in the test on SNAP-A1AR is given as “markedly reduced”.
Turning to CA200645 [reference compound], the “time for BRET signal to return to baseline after addition of 10 μM DPCPX” value at NL-hA1AR is given as at most 4.7 min.
